Data: patent US6585982B1, “Treatment of infertility” (NNA/S, priority 1999, dated 2003)

How the values were obtained:
[1] = tested on: metaphase II oocytes; assay: FF-MAS as adjunct to a standard FSH based IVF treatment (GnRH analog Synarel down regulation, ICSI); assay type: cell-based, human
Excerpt: (§1) The patient underwent down regulation with an GnRH analog, i.e., Synarel (nasal spray, two puffs daily), for at least 14 days (starting in the luteal phase of the previous cycle or Day 1 or 2 in the follicular phase of the current cycle) and ovarian stimulation with recombinant FSH with an average daily dose of 225 IU. At least 3 follicles of 17 mm or more were present at the time of administering hCG, i.e. Profase (10.000 IU, one shot). Follicles were aspirated and metaphase II oocytes were cultured in oocyte culture system containing standard in vitro fertilization (IVF) media (IVF 20 (which is available from Scandinavian IVF Science AB, Gothenburg, Sweden)) supplemented with human serum albumin (0.8%) and FF-MAS (5 μM). All oocytes were cultured under normal conditions at 37° C. in the incubator. Each oocyte was cultured in one well in a four-chamber culture dish as culture media system. […] Preembryos were evaluated for cleavage stage and fragmentation/morphology at 1, 2 and 3 days post ICSI. […] The patient received an estrogen, i.e., Estrofem (6 mg/daily), and a progesterone, i.e., Utrogestan (600 mg/daily, micronized, vaginal suppository), daily to render the endometrium lining the patient uterus responsive and ready for allowing implantation of the transferred eggs. […]

[2] = tested on: metaphase II oocytes; assay: FF-MAS as adjunct to a standard FSH based IVF treatment (GnRH antagonist Cetrorelix protocol, ICSI); assay type: cell-based, human
Protocol: as §1, with “regulation” for “regulation with an GnRH analog, i.e., Synarel (nasal spray, two puffs daily), for at least 14 days (starting in the luteal phase of the previous cycle or Day 1 or 2 in the follicular phase of the current cycle) and ovarian stimulation”, “225 IU starting on Day 1 or 2 of the current cycle and used a GnRH antagonist, i.e., Cetrorelix (1 mg daily, subcutaneously, one shot), in the current cycle.” for “225 IU.”, “hCG, i.e., Profasi” for “hCG, i.e. Profase”, “progesterone, i.e.” for “progesterone, i.e.,”, “suppository),” for “suppository), daily”

[3] = FF-MAS 5 μM, 0.8% HSA in IVF 20 medium, 4 hours before and 20 hours after ICSI

Measured: results of the IVF procedure compared with the known procedures

CC(C)=CCC[C@@H](C)[C@H]1CC=C2C3=C(CC[C@@]21C)[C@@]1(C)CC[C@H](O)C(C)(C)[C@@H]1CC3 [FF-MAS, 4,4-dimethyl-5α-cholesta-8,14,24-triene-3β-ol]
better results: [1]; [3] | [1]; FF-MAS 20 μM, otherwise procedure of Example 4 | [2]; [3] | [2]; FF-MAS 20 μM, otherwise procedure of Example 3
